Assay results published in article PMC7574915 (Science Translational Medicine, 2020).
Values joined by “and” are separate entries in the source; they are usually repeats but may differ in a detail not shown here. Identical values can stand only once. Like-named read-outs stand apart in the source and are kept apart here.

Columns and labels:
3CLpro of MERS-CoV = 3CLpro of MERS-CoV (Middle East respiratory syndrome-related coronavirus, UniProt K9N7C7); assay: biochemical
3CLpro of SARS-CoV = 3CLpro of SARS-CoV (Severe acute respiratory syndrome coronavirus, UniProt P0C6X7); assay: biochemical
3CLpro of SARS-CoV-2 = biological target: T1, 3CLpro of SARS-CoV-2 (Severe acute respiratory syndrome coronavirus 2, UniProt P0DTD1); assay: biochemical
T1 construct: His6 (N); made in house; host or cells: E. coli (inferred from the pET-28a(+) vector)

MHV = assay: microbe, parasite or virus in culture; format: cell-based, mouse hepatitis virus; conditions: Murine coronavirus, L929, 24 h, read-out: EC50 in cell culture, MHV
FIPV [1] = assay: microbe, parasite or virus in culture; format: cell-based, feline infectious peritonitis virus; conditions: Alphacoronavirus 1, CRFK, 24 h, read-out: EC50 in cell culture, FIPV
MERS-CoV = assay: microbe, parasite or virus in culture; format: cell-based
SARS-CoV-2 [2] = assay: microbe, parasite or virus in culture; format: cell-based; conditions: Severe acute respiratory syndrome coronavirus 2, Vero C1008, read-out: EC50 in cell culture, SARS-CoV-2
SARS-CoV-2 [3] = assay: microbe, parasite or virus in culture; format: cell-based
MERSMA-CoV [4] = conditions: mouse, in vivo, 50 mg/kg/day
MERSMA-CoV [5] = conditions: mouse, in vivo
FIPV [6] = conditions: read-out: EC50 in cell culture, FIPV; cited from earlier work
[7] = test system: feline infectious peritonitis (FIP); conditions: in vivo; cited from earlier work
[8] = Middle East respiratory syndrome-related coronavirus, Huh-7, read-out: EC50 in cell culture, MERS-CoV

Chain of 3CLpro of MERS-CoV (K9N7C7 3248-3553 limits assumed): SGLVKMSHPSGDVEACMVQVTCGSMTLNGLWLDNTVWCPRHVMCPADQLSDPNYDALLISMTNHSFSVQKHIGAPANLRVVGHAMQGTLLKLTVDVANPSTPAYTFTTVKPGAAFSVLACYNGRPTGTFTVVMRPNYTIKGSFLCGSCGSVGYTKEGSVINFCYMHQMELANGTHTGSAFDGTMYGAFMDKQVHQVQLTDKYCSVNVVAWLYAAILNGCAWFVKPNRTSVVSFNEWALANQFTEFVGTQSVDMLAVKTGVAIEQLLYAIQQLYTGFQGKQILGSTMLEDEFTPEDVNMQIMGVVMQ

SMILES	IC50 (3CLpro of MERS-CoV) [nM]	IC50 (3CLpro of SARS-CoV) [nM]	IC50 (3CLpro of SARS-CoV-2) [nM]	EC50 (MHV) [nM]	EC50 (FIPV [1]) [nM]	CC50 (in vitro) [nM]	EC50 in cell culture, MERS-CoV (MERS-CoV)	EC50 (MERS-CoV; [8]) [nM]	also measured
CC(C)C[C@H](NC(=O)OC1CCCCC1)C(=O)N[C@H](C=O)C[C@@H]1CCNC1=O [Compound 6a]	350 ± 100	3900 ± 300	820 ± 100	120 ± 50	90 ± 20	> 100000			
CCCC1CCC(OC(=O)N[C@@H](CC(C)C)C(=O)N[C@H](C=O)C[C@@H]2CCNC2=O)CC1 (stereo partly shown) [Compound 6c]			280 ± 50	130 ± 50	120 ± 10	> 100000	submicromolar	50 ± 60	EC50 (SARS-CoV-2 [2]): 250 ± 150 nM
CCCCC1CCC(OC(=O)N[C@@H](CC(C)C)C(=O)N[C@H](C=O)C[C@@H]2CCNC2=O)CC1 (stereo partly shown) [Compound 6e]	150 ± 20	900 ± 100	170 ± 60	120 ± 40	220 ± 30	63300 ± 2300			EC50 (SARS-CoV-2 [2]): 150 ± 140 nM; inhibition of viral replication (SARS-CoV-2 [3]): about 10 fold; inhibition at 0.5 µM (SARS-CoV-2 [3]; Severe acute respiratory syndrome coronavirus 2, Epithelial cell, read-out: inhibition of virus replication): ~50%
CC(C)C[C@H](NC(=O)OC1CCC(F)(F)CC1)C(=O)N[C@H](C=O)C[C@@H]1CCNC1=O [Compound 6h]	70 ± 10	2300 ± 300	430 ± 100	80 ± 50	120 ± 50	> 100000			EC50 (SARS-CoV-2 [2]): 900 ± 800 nM; body weight (MERSMA-CoV [4]; ip): continued to lose body weight until 6 dpi but then started to gain weight from 9 dpi; survival at the end of the study (15 dpi) (MERSMA-CoV [4]; ip): 40%
CC(C)C[C@H](NC(=O)OCC1CCC(F)(F)CC1)C(=O)N[C@H](C=O)C[C@@H]1CCNC1=O [Compound 6j]					80 ± 20	> 100000	submicromolar	40 ± 20	inhibition of viral replication (SARS-CoV-2 [3]): about 10 fold; inhibition of virus replication (SARS-CoV-2 [3]): 100 fold; Virus titers (log10) (SARS-CoV-2 [3]; 48 hours): 6.35 ± 0.02 log10 and 6.10 ± 0.09 log10 and 6.30 ± 0.1 log10; body weight (MERSMA-CoV [4]): regained the lost weight by 15 dpi; body weight (MERSMA-CoV [4]; ip): rapidly recovered from body weight loss starting at 3 dpi; survival at the end of the study (15 dpi) (MERSMA-CoV [4]; ip): all mice treated with compound 6j were alive; Edema in the lungs (score 0 to 4) (MERSMA-CoV [5]): reduced compared to control mice; Lung virus titers (MERSMA-CoV [5]): decreased; Scores for hyaline membrane formation (0 to 4) (MERSMA-CoV [5]): reduced in 6j-treated mice but were not statistically different from control mice; lung lesions (histopathology) (MERSMA-CoV [5]): few observed lesions
CC(C)C[C@H](NC(=O)OC1CCCCC1)C(=O)N[C@@H](C[C@@H]1CCNC1=O)C(O)S(=O)(=O)O (stereo partly shown) [Compound 7a]	150 ± 10	3800 ± 400	650 ± 60	80 ± 30	70 ± 20	> 100000	submicromolar	80 ± 100	
CCCC1CCC(OC(=O)N[C@@H](CC(C)C)C(=O)N[C@@H](C[C@@H]2CCNC2=O)C(O)S(=O)(=O)O)CC1 (stereo partly shown) [Compound 7c]	100 ± 40		230 ± 50	160 ± 80	170 ± 30	> 100000			
CCCCC1CCC(OC(=O)N[C@@H](CC(C)C)C(=O)N[C@@H](C[C@@H]2CCNC2=O)C(O)S(=O)(=O)O)CC1 (stereo partly shown) [Compound 7e]	130 ± 60	1000 ± 100	200 ± 60	130 ± 20	170 ± 20	59100 ± 3500	submicromolar	530 ± 200	
CC(C)C[C@H](NC(=O)OC1CCC(F)(F)CC1)C(=O)N[C@@H](C[C@@H]1CCNC1=O)C(O)S(=O)(=O)O (stereo partly shown) [Compound 7h]	80 ± 10	2200 ± 100	410 ± 100	110 ± 80	120 ± 60	> 100000	submicromolar	210 ± 100	
CC(C)C[C@H](NC(=O)OCC1CCC(F)(F)CC1)C(=O)N[C@@H](C[C@@H]1CCNC1=O)C(O)S(=O)(=O)O (stereo partly shown) [Compound 7j]	100 ± 10	1100 ± 100	450 ± 100	160 ± 50	70 ± 10	> 100000			
CC(C)C[C@H](NC(=O)OCc1ccccc1)C(=O)N[C@@H](C[C@@H]1CCNC1=O)C(O)S(=O)(=O)O (stereo partly shown) [GC376, reference compound]						> 100000		~1000	EC50 (MERS-CoV; read-out: EC50 in cell culture, MERS-CoV): 900 ± 200 nM; EC50 (FIPV [6]): 40 nM; progression of FIP [7]: reversed the progression of FIP and resulted in clinical remission
